# Results as given in patent US6699676B1, “Uses of ouabain and ouabain-like molecules in apoptosis related pathologies” (Corporation du Centre de Recherche du Centre, Hospitalier …, priority 1999, dated 2004).
# Marks after values point to notes of the source that are not given here.
# Legend:
# Type in all cases: cell-based, rat
# [1] = system: VSMC-MYC; assay: Chromatin cleavage assay in VSMC-MYC; settings: 1 mM ouabain, 1 hr preincubation, 6 hours
# Experimental: Cells were incubated in K^+-containing medium consisting of 91 mM NaCl, 5 mM KCl, 0.9 mM NaH2PO4, 44 mM NaHCO3, 1.8 mM CaCl2, 0.8 mM MgCl2, 33 mM HEPES and 5 mM D-glucose (pH 7.4) (lines 1 and 2) or in K^+-depleted medium (equimolar substitution of KCl by NaCl, line 3) with or without 10% calf serum (CS) and 1 mM ouabain as indicated. In experiments with VSMC-MYC and VSMC-E1A, cells were preincubated for 1 hr with ouabain or with K^+-depleted medium in the presence of CS and then subjected to treatment with serum-free media. After 24 hours (VSMC) or 6 hours (VSMC-MYC and VSMC-E1A), the content of chromatin fragments was measured as described in Experimental Procedures. […]
# Chromatin cleavage assay. […] After 15 min, the cell lysate was transferred to Ependorf tubes, sedimented (12,000 rpm, 10 mm), and 1 ml of supernatant was transferred for the measurement of radioactivity (A1t). The remaining radioactivity from pellets and wells was extracted with 0.5 ml of 1% SDS/4 mM EDTA mixture, combined and counted (A2). Chromatin cleavage was quantified as the content of chromatin fragments normalized by total content of [^3H]-labeled DNA in accordance with the equation [1.5×(A1t−A1o)/(A2+A1t−1.5A1o)]×100% where A1o is the value of A1t before induction of apoptosis. […]
# [2] = system: VSMC; assay: LDH release (necrosis marker) in VSMC
# Experimental: VSMC growing in 6-well (LDH release) or 24-well (chromatin cleavage assay) plates were preincubated for 3 hours with or without 1 mM ouabain. In part of the experiments, the cells were subjected to 30 min incubation at 46° C. (heat-treated cells, line 3). They were then incubated in the absence or presence of 10% calf serum during additional 8 hr and chromatin cleavage and LDH release were measured as indicated in Experimental Procedures and with a spectrophotometric kit (Sigma), respectively. Means±S.E. from experiments performed in triplicate (LDH release) or quadruplicate (chromatin cleavage) are given. ★, ★★ p<0.05 and 0.001 compared to ouabain-untreated cells. #p<0.001 compared to serum-supplied, heat-untreated cells.
# [3] = system: VSMC; assay: DNA synthesis, serum-induced [3H]-thymidine incorporation in VSMC
# Experimental: As with ouabain, VSMC apoptosis was blocked by inhibition of the Na^+,K^+ pump in K^+-depleted medium (Table 1). […] DNA synthesis in VSMC, measured as serum-induced [^3H]-thymidine incorporation, was also insensitive to 5 hours preincubation with ouabain and was decreased by ˜60% only after 48 hours of the Na^+, K^+ pump inhibition (data not presented).
# [4] = system: VSMC-E1A; assay: Cell morphology by phase contrast microscopy in VSMC-E1A; settings: 1 mM ouabain pretreatment, 6 hours serum-deprived medium
# Experimental: FIG. 3. Effect of ouabain on morphology (A) and DNA laddering (B and C) in VSMC-E1A. In experiments with ouabain, cells were pretreated with 1 mM of this compound 1 hour before 6 hours exposure to serum-free medium. A. Cell morphology was evaluated by phase contrast microscopy without preliminary fixation. a, c) DMEM containing 10% calf serum; b, d) serum-free DMEM; a, b) without ouabain; c, d) in the presence of ouabain. Micro graphs were prepared using a Nikon phase contrast microscope at ×100 magnification. Apoptotic cells are shown by arrows. B. DNA laddering (left part of the figure) was analyzed with a PhosphorImager, and relative content of low molecular weight DNA fragments (1,500−125 bp−right part of the figure) in cells incubated with 10% calf serum (CS) in the absence of ouabain was taken as 100%. Means±S.E. obtained in 2 experiments performed in triplicate are shown.
compound,measurement,setting,value
"C[C@@H]1O[C@@H](O[C@H]2C[C@@H](O)[C@]3(CO)[C@H]4[C@H](O)C[C@]5(C)[C@@H](C6=CC(=O)OC6)CC[C@]5(O)[C@@H]4CC[C@]3(O)C2)[C@H](O)[C@H](O)[C@H]1O [Ouabain, 1β,3β,5,11α,14,19-hexahydroxycard 20 [22]-enolide 3-[6-deoxy-α-L-mannopyrano-sidel]]",Chromatin fragments (%),[1]; 10% CS,1.4 ± 0.3%
same,Chromatin fragments (%),[1]; CS-free,3.1 ± 0.4 %
same,LDH release,"[2]; VSMC, 8 hours incubation with ouabain",did not observe any significant effect
same,heat stress-induced LDH-release,"[2]; VSMC, heat stress 46° C., 30 min, ouabain",did not observe modulation
same,LDH release (%),"[2]; serum-deprived VSMC, 3 hours preincubation 1 mM ouabain, additional 8 hr",1.8 ± 0.4%
same,LDH release (%),"[2]; serum-supplied VSMC, 3 hours preincubation 1 mM ouabain, additional 8 hr",1.2 ± 0.3%
same,LDH release (%),"[2]; serum-supplied, heat-treated (46° C., 30 min) VSMC, 1 mM ouabain, 8 hr",11.0 ± 2.8# %
same,"DNA synthesis, serum-induced [^3H]-thymidine incorporation",[3]; 5 hours preincubation with ouabain,insensitive
same,"decrease of DNA synthesis, serum-induced [^3H]-thymidine incorporation","[3]; after 48 hours of Na+,K+ pump inhibition with ouabain",~60%
same,number of apoptotic cells,[4],sharply decreased the number of apoptotic cells
